According to article PMC12249711, “Comprehensive Evaluation of 1H-Isoindole-1,3(2H)-Dione Derivatives: Pharmacokinetic Studies and Analgesic Potential in Various Pain Models” (International Journal of Molecular Sciences, 2025):

Tests used:
[1] = test system: mice; assay: Formalin test; assay type: in vivo, Albino Swiss mice; settings: for Reduction of pain response, inflammatory phase: phase II (15–30 min)
Protocol: The pain reaction was induced by intraplantar (i.pl.) injection of 20 μL of 2.5% formalin solution into the right hind paw of the mouse (n = 136). […] Time (in seconds) spent on licking or biting the injected hind paw in selected intervals, 0–5 min (neurogenic phase) and 15–30 min (inflammatory phase), was measured in each group and was an indicator of nociceptive behavior. The procedure was based on the method described by with some modifications by.

[2] = test system: rats; assay: Carrageenan-induced mechanical hyperalgesia (pain pressure threshold, Randall-Selitto); assay type: in vivo, Wistar rats; settings: for Pain Threshold: 20 mg/kg i.p., mean ± SEM, rats; for Increase in pain threshold: 20 mg/kg, vs control
Protocol: The acute and local inflammation and paw edema was induced by intraplantar (i.pl.) injection of 0.1 mL of 1% carrageenan solution in PBS into the rat’s right hind paw, according to the modified method of Winter and Lence, as described previously; (n = 84). The paw volume was measured using the dislocation of the water column of the plethysmometer (Type a, 7140; Plethysmometer, Ugo Basile, Gemonio, Italy) before (V0) and at 1, 2, and 3 h (V1, V2, V3) after i.pl. carrageenan injection. […] Vehicle (1% Tween 80) was administered by the same route as the tested compounds.
Furthermore, we performed the pain pressure threshold test to assess heightened sensitivity to mechanical stimuli. The experiment was conducted based on the method described by Randall and Selitto [58], with certain modifications. An analgesymeter (AnalgesyMeter 37215, Ugo Basile, Gemonio, Italy) was used to gradually apply increasing pressure (measured in grams) to the plantar surface of the right hind paw of the rat until paw withdrawal occurred. At this point, the intensity of the applied force (in grams) was recorded as the withdrawal threshold. The maximum force intensity was set at 250 g. Carrageenan induces a decrease in the nociceptive threshold in response to a mechanical stimulus, a condition referred to as hyperalgesia. For each rat, paw withdrawal thresholds were recorded both before (0 h) and 1, 2, and 3 h after carrageenan administration (i.e., 3.5 h after intraperitoneal pretreatment with the tested compounds). […] The analgesic effect of the tested compounds was assessed in comparison with the control group (1% Tween 80); the injection was performed intraperitoneally within 30 min of carrageenan administration. An analgesic effect occurs when the compound administered produces a pain response with greater pressure than the control group.

Which “Reduction of pain reaction (licking duration), neurogenic phase” value ([1]; phase I (0–5 min), 20 mg/kg i.p., vs vehicle) does the source give for `CC(C(=O)O)c1cccc(C(=O)c2ccccc2)c1` (stereo not drawn) [Ketoprofen, ketoprofen, reference compound] here?
The value was 59.7%.

What about the “Reduction of neurogenic pain, neurogenic phase” value ([1]; phase I, ketoprofen doses other than 20 mg/kg) of the same compound?
The value was “did not show a statistically significant reduction”.

What about the “Reduction of pain response, inflammatory phase” value (shortened to “Reduction of pain response”) ([1]; 10 mg/kg i.p., vs vehicle) of the same compound?
Its value is 23.2%.

And the “Reduction of pain response” value ([1]; 20 mg/kg i.p., vs vehicle)?
The value was 59.9%.

And the “Reduction of pain response” value ([1]; 50 mg/kg, vs vehicle)?
The value was 71.8%.

What about the “Pain Threshold” value ([2]; 0 h (before carrageenan)) of the same compound?
Its value is 130 ± 2.9 g.

And the “Pain Threshold” value ([2]; 1 h after carrageenan)?
Its value is 155.8 ± 5.2 g.

And the “Pain Threshold” value ([2]; 2 h after carrageenan)?
The value was 187.5 ± 9.0 g.

And the “Pain Threshold” value ([2]; 3 h after carrageenan)?
The value was 178.3 ± 11.7 g.

What about the “Increase in pain threshold” value ([2]; 1 h) of the same compound?
The value was 19.8%.

And the “Increase in pain threshold” value ([2]; 2 h)?
Its value is 38%.

What about the “Increase in pain threshold” value ([2]; 3 h) of the same compound?
The value was 33.8%.
